Experimental data reported in publication PMC5434028, “Structure-based prediction and identification of 4-epimerization activity of phosphate sugars in class II aldolases” (Scientific Reports, 2017).

Target: T1, RhaD (L-rhamnulose-1-phosphate aldolase) (Escherichia coli, UniProt P32169)
T1 sequence (P32169 1-274): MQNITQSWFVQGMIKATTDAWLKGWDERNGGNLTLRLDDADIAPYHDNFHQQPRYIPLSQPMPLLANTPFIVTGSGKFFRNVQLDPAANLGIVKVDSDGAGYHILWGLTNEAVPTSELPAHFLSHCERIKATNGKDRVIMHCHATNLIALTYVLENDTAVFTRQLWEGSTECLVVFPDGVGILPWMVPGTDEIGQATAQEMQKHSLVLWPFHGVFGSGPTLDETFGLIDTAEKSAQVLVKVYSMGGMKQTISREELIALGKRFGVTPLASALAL
Experiment: aldol condensation, dephosphorylation, Bio-LC of sorbose and psicose
Format: biochemical
Settings: 50 mM Tris-HCl pH 7.0, 50 °C

Row | Compound | aldol condensation, dephosphorylation, Bio-LC of sorbose and psicose (co-substrate DHAP) | aldol condensation, dephosphorylation, Bio-LC of sorbose and psicose (co-substrate GA)
1 | O=C[C@H](O)CO [GA] | S1P and P1P were condensed from DHAP and GA using RhaD | –
2 | O=C(CO)COP(=O)(O)O [dihydroxyacetone phosphate] | – | S1P and P1P were condensed from DHAP and GA using RhaD
